Measurements published in patent US6998234B2, “Methods for cancer prognosis and diagnosis relating to tumor vascular endothelial cells” (Oncotech, Inc., priority 2000, dated 2006).

Experiments:
[1] = tested on: endothelial cells; conditions: from Mendel et al. 2000 (SU5416) and Laird et al. 2000 (SU6668); read-out: predetermined IC50 concentration; cited from earlier work
[2] = tested on: HUVEC; experiment: Annexin V staining test for endothelial cells undergoing apoptosis (Annexin V-FITC/PI flow cytometry); format: cell-based, human; conditions: HUVEC on collagen I, 0.0011 μM mM docetaxel, FIG. 6
Description: Altered cell attachment and loss of membrane integrity are among the earliest morphological features of programmed cell death. Annexin V, a 35-36 kDa Ca^2+-dependent phospholipid-binding protein, has a high affinity for the membrane phospholipid phosphatidylserine, normally located on the inner leaflet of the cell membrane (Raynal et al., 1994, Biochem. et Biophys. Acta. 1197:63-93). In cells undergoing apoptosis, however, phosphatidylserine is translocated to the outer leaflet of the plasma membrane and can be detected by Annexin V labeled with fluorescent dyes, such as FITC. To distinguish truly apoptotic cells from necrotic cells, Annexin V was used in combination with PI exclusion. In this assay, HUVEC undergoing apoptosis are Annexin V-positive, PI negative, while necrotic cells are Annexin V-positive, PI-positive.
As an example, HUVEC cells were cultured on collagen I and treated with 0.0011 μM mM docetaxel and then stained with both Annexin V and PI. Annexin V binding and PI staining of nuclei were documented for the same cell population using the PharMingen Annexin V flow cytometry assay and two-color immunofluorescence on live HUVEC monolayers. Staining with Annexin V-FITC was visible on the membrane as green fluorescence, and PI staining was visible in the nucleus as red fluorescence. […] In a separate experiment, HUVEC cells were transferred into Ultra Low Attachment 24-well plates (Corning, Inc., Corning N.Y.) covered with a layer of hydrogel that is hydrophilic and neutrally charged. The hydrogel surface inhibits non-specific immobilization, and therefore subsequent cell attachment, because proteins and other biomolecules passively adsorb to surfaces through hydrophobic and ionic interactions. Because of the lack of appropriate ECM providing anti-apoptotic signals, HUVEC undergo rapid apoptosis under these culture conditions. For example, 24 hours after their transfer into Ultra Low Attachment plates, 61% of HUVEC cells were undergoing an (Annexin V-positive, PI-negative) apoptotic process (shown in FIG. 7).

[3] = tested on: HUVEC; experiment: APO-DIRECT assay (late apoptosis, DNA breaks); format: cell-based, human; conditions: collagen I, 1 μM docetaxel, 48 hours, FIG. 8
Description: The APO-DIRECT assay (Phoenix Flow Systems, San Diego, Calif.) utilizes single step fluorescent labeling and flow cytometric analysis by taking advantage of the multitude of 3′-hydroxyl termini of DNA present in apoptotic cells. One of the hallmarks of cellular self-destruction by apoptosis is the activation of nucleases that degrade the higher order chromatin structure of the DNA into fragments of 50 to 300 kilobases. These DNA fragments result in the appearance of “DNA laddering” when the DNA is analyzed by agarose gel electrophoresis. (Arends et al., 1990, Am. J. Pathol. 136:593-608). Apoptotic cells were identified by labeling the 3′-hydroxy ends of double- and single-stranded DNA breaks with fluorescent-tagged deoxyuridine triphosphate nucleotides (F-dUTP) using the enzyme deoxynucleotidyl transferase (TdT). […] The APO-DIRECT assay identified cells undergoing apoptosis at a later stage of programmed cell death than assays based on Annexin V binding.
In these experiments, HUVEC were incubated on collagen I for 48 hours in the presence of 1 μM docetaxel. The cells were fixed in paraformaldehyde and stored at −20° C. until use. […] The gating display was created according to Phoenix Flow protocol using Linear Red Fluorescence (DNA) on the X-axis and Log green Fluorescence (d-UTP) on the Y-axis. […]

[4] = tested on: HUVEC; experiment: HUVEC morphology by phase contrast microscopy; format: cell-based, human; conditions: HUVEC on collagen I, 48 hours; 10 μM or 1 μM docetaxel, 10 μM thalidomide, FIG. 11
Protocol: (§1) HUVEC were cultured for 48 hours on collagen I and treated with either 10 μM docetaxel, 1 μM docetaxel, or 10 μM thalidomide. The effect on cell morphology was observed by phase contrast microscopy. In addition, apoptotic HUVEC cultured on collagen in the presence of 10 μM docetaxel were stained with AnnexinV-FITC (green fluorescence) and PI (red fluorescence) and visualized with immunofluorescent photomicrography. […] An atypical pattern of Dil-ac-LDL accumulation in drug-treated cells was observed under high magnification.

[5] = tested on: HUVEC; experiment: Dil-ac-LDL uptake by HUVEC; format: cell-based, human; conditions: HUVEC on collagen I, 48 hours, 10 μM docetaxel, FIG. 12
Description: The uptake of Dil-ac-LDL (Biomedical Technologies, Inc., Stoughton Mass.) was utilized to identify and characterize differentiated VEC using fluorescent microscopy on live cell monolayers. After uptake, Dil-ac-LDL is degraded by lysosomal enzymes in endothelial cells, with the Dil fluorescent probe accumulating in the intracellular membrane. (Pitas et al., 1985, J. Cell. Biol. 100:103-117). Discrimination using this system is high, because no other cell type, with the exception of macrophages, is labeled to the same degree as VEC (Voura et al, 1998, Microsc. Res. Tech. 43: 265-275; Pitas et al., 1985, J. Cell Biol. 100:103-117), and macrophages can be excluded from the analysis and sorting protocols with CD45 staining. In addition, macrophages can be differentiated from VEC because the […] is more brightly labeled with Dil-ac-LDL.
as §1

[6] = tested on: HUVEC; experiment: HUVEC tubulogenesis on MATRIGEL; format: cell-based, human; conditions: three hours after cell transfer
Description: Functional tests were also used to characterize the differentiation status of VEC cultured in different growth environments in vitro, as previously described. (Hewett et al., 1993, In Vitro Cell Dev. Biol. 29A: 823-830; Benelli et al., 1999, Int. J. Biol Markers 14: 243-246). MATRIGEL, a three-dimensional support matrix that is composed of solubilized membranes extracted from Engelbreth-Holm-Swarm (“EHS”) mouse sarcoma cells, was used because of the ability of mammalian VEC derived from different tissue sources to form capillary-like tubules and generate branched and forked networks in this media. The major components of this matrix are ECM proteins, such as laminin, collagen IV, entactin, and heparan sulphate proteoglycan, as well as growth factors, such as bFGF and EGF. MATRIGEL has previously been used to induce and maintain differentiation of endothelial, muscle, and neuronal cells, and for the development of three-dimensional matrix and cell invasion systems in vitro. (Gargett et al., 2000, Hum. Reprod. 15:293-301; Voura et al., 1998, Microsc. Res. Tech. 43: 265-275).
VEC were cultured both on BIOCOAT MATRIGEL matrix-coated tissue culture flasks (Becton Dickinson), and on MATRIGEL matrix prepared from pre-frozen gels that were thawed, kept at +4° C. before use and solidified at +37° C. for 3-16 hours before testing. The optimal time to detect the formation of tubules and capillary-like networks on MATRIGEL was from 3-6 hours. (Gargett et al., 2000, Hum. Reprod. 15:293-301; Voura et al., 1998, Microsc. Res. Tech. 43: 265-275). […] No viable VEC were found in MATRIGEL cultures after 48 hours.

[7] = tested on: VEC derived from fresh tumor specimens; experiment: Microarray analysis of drug-resistant versus drug-sensitive tumor-derived VEC sorted by Annexin V; format: cell-based, human; conditions: 0.1 μM docetaxel, 24 hours
Protocol: Anti-angiogenesis agents were screened using highly purified populations of endothelial cells derived from fresh tumor specimens. 2×10^7 VEC that were sorted for the expression of CD31 and CD105 endothelial markers were exposed to 0.1 μM docetaxel or 50 μM BSO, a proprietary drug. […] After 24 hours of drug exposure in cytophobic plates, VEC were sorted under sterile conditions using the above Annexin V-flow cytometry protocol. To ensure the purity of sorted VEC, the sorted populations were reanalyzed by flow cytometry for Annexin V and PI staining, as shown in FIG. 17. The purity of the sorted VEC populations varied between 97.3% and 99.1%. Total RNA was isolated from both resistant (Annexin V−/PI−) and sensitive (Annexin V+/PI−) populations, and cDNA probes were hybridized with Research Genetics GeneFilters© microarrays containing over 40,000 known human gene sequences. In order to compare the microarray results for the drug-resistant sample to the drug-sensitive sample, FIG. 18 is a two-dimensional scatter plot constructed of intensity values from the microarrays normalized by converting to the fraction of total intensity and then log transformed, which was used to compare the microarray results for the resistant and sensitive sample. Diagonal lines were utilized that separated the genes that have more than a 2-fold difference in expression level.

[8] = RESISTANT, resistant versus sensitive VEC
[9] = SENSITIVE, resistant versus sensitive VEC

Cc1cc(C)c(/C=C2\C(=O)Nc3ccccc32)[nH]1 [SU5416]
IC50 [1]: 1000 nM

Cc1[nH]c(/C=C2\C(=O)Nc3ccccc32)c(C)c1CCC(=O)O [SU6668]
IC50 [1]: 340 nM

CC(=O)O[C@@]12CO[C@@H]1C[C@H](O)[C@@]1(C)C(=O)[C@H](O)C3=C(C)[C@@H](OC(=O)[C@H](O)[C@@H](NC(=O)OC(C)(C)C)c4ccccc4)C[C@@](O)([C@@H](OC(=O)c4ccccc4)[C@H]21)C3(C)C [docetaxel]
cells dead due to either apoptosis or necrosis [2]: 16%
cells intact (Annexin V-negative, PI-negative) [2]: 80%
cells undergoing apoptosis [2]: 3.5%
HUVEC that had undergone apoptosis [3]: 73%
effect on cell morphology [4]: rounded and partially detached HUVEC
Dil-ac-LDL uptake [5]: very few docetaxel-treated HUVEC took up DIL-as-LDL
tubulogenesis on MATRIGEL ([6]; 10 μM, FIG. 13): complete absence of VEC-like tubules
tubulogenesis and capillary-like network formation on MATRIGEL ([6]; lower doses (1, 0.1, 0.01, 0.001 μM)): inhibited tubulogenesis and capillary-like network formation
Ratio, Human HLK1 mRNA, complete cds [7, 8]: 3.6
Ratio, Interferon regulatory factor 5 [7, 8]: 4.4
Ratio, Keratin, type I cytoskeletal 14 [7, 8]: 4
Ratio, Small proline-rich protein 1B (cornifin) [7, 8]: 3.6
Ratio, Tuberin [7, 8]: 3.2
Ratio, Fibrinogen beta-chain precursor ([7]; SENSITIVE): 4.9
Ratio, Human TWIK-related acid-sensitive K + channel gene ([7]; SENSITIVE): 5.9
Ratio, Human metallothionein (MT)I-F gene [7, 9]: 6.2
Ratio, Human mucosal addressin cell adhesion molecule [7, 9]: 9.5
Ratio, Human putative fatty acid desaturase [7, 9]: 5.2

O=C1CCC(N2C(=O)c3ccccc3C2=O)C(=O)N1 (stereo not shown) [thalidomide]
effect on cell morphology [4]: no effect on HUVEC morphology
effects on HUVEC tubulogenesis on MATRIGEL ([6]; 10, 1, 0.1, 0.01 and 0.001 μM): No effects
